Reference: ChEMBL document CHEMBL3272098, “Reactions of 2-acyloxyisobutyryl halides with nucleosides. 7. Synthesis and biological evaluation of some 2,2'-anhydro-1(3',5'-di-O-acyl-beta-D-arabinofuranosyl)cytosine hydrochlorides” (J Med Chem, 1976)
pEC50: −log10 of the molar value. Active and inactive are the calls of the source. The rule behind the calls is not given here.

Legend:
L1210 [1] = assay: Antitumor activity against mouse L1210 cells allografted in BDF1 mouse assessed as increase in life span at 200 mg/kg, ip administered 24 hrs post-implantation measured up to 30 days relative to control; assay type: functional; conditions: route intraperitoneal
L1210 [2] = assay: Antitumor activity against mouse L1210 cells allografted in BDF1 mouse assessed as increase in life span at 50 mg/kg, ip administered 24 hrs post-implantation measured up to 30 days relative to control; assay type: functional; conditions: route intraperitoneal
Mus musculus [3] = assay: Toxicity in BDF1 mouse allografted with mouse L1210 cells assessed as survival at 1000 mg/kg, ip administered 24 hrs post-implantation after 30 days; assay type: organism-based; design: dose 1000 mg/kg, route intraperitoneal; conditions: in vivo, 720 h
Mus musculus [4] = assay: Toxicity in BDF1 mouse allografted with mouse L1210 cells assessed as reduction in average life span at 1000 mg/kg, ip administered 24 hrs post-implantation measured up to 30 days relative to control; assay type: organism-based; design: dose 1000 mg/kg, route intraperitoneal; scale not given: the % may be the effect or the level left; conditions: in vivo
Mus musculus [5] = assay: Toxicity in BDF1 mouse allografted with mouse L1210 cells assessed as survival at 500 mg/kg, ip administered 24 hrs post-implantation after 30 days; assay type: organism-based; design: dose 500 mg/kg, route intraperitoneal; conditions: in vivo, 720 h
BGM = assay: Antiviral activity against Poliovirus type 1 Mahoney infected in African green monkey BGM cells after 5 days by pulp disk diffusion assay; assay type: functional, cell-based; conditions: Human poliovirus 1 Mahoney
Vaccinia virus = assay: Antiviral activity against Vaccinia virus IHD infected in African green monkey BGM cells after 6 days by plaque reduction assay; assay type: functional; conditions: Orthopoxvirus vaccinia, 144 h, read-out: ED50 (the source's name)
[6] = tested on: unidentified influenza virus; assay: Antiviral activity against Influenza virus Ao/WNS infected in monkey LLC-MK2 cells after 5 days by pulp disk diffusion assay; assay type: functional, organism-based
L1210 [7] = assay: Antitumor activity against mouse L1210 cells allografted in po dosed BDF1 mouse administered 24 hrs post-implantation; assay type: functional, organism-based
HeLa = assay: Cytotoxicity against human HeLa cells after 48 hrs by Coulter counting analysis; assay type: functional; conditions: read-out: ED50 (the source's name)
Mus musculus [8] = assay: Toxicity in BDF1 mouse allografted with mouse L1210 cells assessed as reduction in average life span at 500 mg/kg, ip administered 24 hrs post-implantation measured up to 30 days relative to control; assay type: organism-based; design: dose 500 mg/kg, route intraperitoneal; scale not given: the % may be the effect or the level left; conditions: in vivo
Herpesviridae sp. = assay: Antiviral activity against Herpes simplex virus HF infected in African green monkey BGM cells after 6 days by plaque reduction assay; assay type: functional; conditions: 144 h, read-out: ED50 (the source's name)
Measles morbillivirus = assay: Antiviral activity against Measles virus infected in African green monkey BGM cells after 5 days by pulp disk diffusion assay; assay type: functional, organism-based
Mus musculus [9] = assay: Toxicity in BDF1 mouse allografted with mouse L1210 cells at 50 mg/kg, ip administered 24 hrs post-implantation measured up to 30 days; assay type: organism-based; design: dose 50 mg/kg, route intraperitoneal; conditions: in vivo
Mus musculus [10] = assay: Toxicity in BDF1 mouse allografted with mouse L1210 cells assessed as survival at 200 mg/kg, ip administered 24 hrs post-implantation after 30 days; assay type: organism-based; design: dose 200 mg/kg, route intraperitoneal; conditions: in vivo, 720 h
L1210 [11] = assay: Antitumor activity against mouse L1210 cells allografted in BDF1 mouse assessed as survival at 50 mg/kg, ip administered 24 hrs post-implantation after 30 days; assay type: functional, organism-based; design: dose 50 mg/kg
Mus musculus [12] = assay: Toxicity in BDF1 mouse allografted with mouse L1210 cells assessed as reduction in average life span at 200 mg/kg, ip administered 24 hrs post-implantation measured up to 30 days relative to control; assay type: organism-based; design: dose 200 mg/kg, route intraperitoneal; scale not given: the % may be the effect or the level left; conditions: in vivo
L1210 [13] = assay: Antitumor activity against mouse L1210 cells allografted in BDF1 mouse assessed as survival at 200 mg/kg, ip administered 24 hrs post-implantation after 30 days; assay type: functional, organism-based; design: dose 200 mg/kg
L1210 [14] = assay: Antitumor activity against mouse L1210 cells allografted in BDF1 mouse assessed as increase in life span at 1000 mg/kg, ip administered 24 hrs post-implantation measured up to 30 days relative to control; assay type: functional; conditions: route intraperitoneal
L1210 [15] = assay: Antitumor activity against mouse L1210 cells allografted in BDF1 mouse assessed as survival at 1000 mg/kg, ip administered 24 hrs post-implantation after 30 days; assay type: functional, organism-based; design: dose 1000 mg/kg
Mus musculus [16] = assay: Toxicity in BDF1 mouse allografted with mouse L1210 cells at 50 to 1000 mg/kg, ip administered 24 hrs post-implantation measured up to 30 days; assay type: organism-based; design: dose 50-1000 mg/kg, route intraperitoneal; conditions: in vivo
L1210 [17] = assay: Antitumor activity against mouse L1210 cells allografted in BDF1 mouse assessed as survival at 500 mg/kg, ip administered 24 hrs post-implantation after 30 days; assay type: functional, organism-based; design: dose 500 mg/kg
L1210 [18] = assay: Antitumor activity against mouse L1210 cells allografted in BDF1 mouse assessed as increase in life span at 500 mg/kg, ip administered 24 hrs post-implantation measured up to 30 days relative to control; assay type: functional; conditions: route intraperitoneal

Compound	ILS at 200 mg/kg (L1210 [1]) [%]	ILS at 50 mg/kg (L1210 [2]) [%]	Activity (Mus musculus [3])	Activity (Mus musculus [4]) [%]	Activity (Mus musculus [5])	Activity (BGM)	pEC50 (Vaccinia virus)	Activity [6]	Activity (L1210 [7])	EC50 (HeLa) [µg/mL]	Activity (Mus musculus [8]) [%]	pEC50 (Herpesviridae sp.)	Activity (Measles morbillivirus)	Activity (Mus musculus [10])	Activity (L1210 [11])	Activity (Mus musculus [12]) [%]	Activity (L1210 [13])	Activity (L1210 [17])	ILS at 500 mg/kg (L1210 [18]) [%]	also measured
CCCCCCCCCCCCCC(=O)OC[C@H]1O[C@@H]2[C@@H](Oc3nc(=N)ccn32)[C@@H]1OC(=O)CCCCCCCCCCCCC.Cl	> 295	> 129	Toxic	18	Toxic	inactive	5.76	inactive	inactive	0.48	20	5.22	inactive							
C/C=C/C=C/C(=O)OC[C@H]1O[C@@H]2[C@@H](Oc3nc(=N)ccn32)[C@@H]1OC(=O)/C=C/C=C/C.Cl		1				inactive	5.24	inactive	inactive	0.1		< 5.00	inactive	Toxic	inactive	100				Activity (Mus musculus [9]): Non-toxic
CCCCCCCCCCCC(=O)OC[C@H]1O[C@@H]2[C@@H](Oc3nc(=N)ccn32)[C@@H]1OC(=O)CCCCCCCCCCC.Cl	> 310	> 195	Toxic	18	Toxic	inactive	6.15	inactive	inactive	0.48	23	5.46	inactive				Active			
CCCCCCCC/C=C\CCCCCCCCCCCC(=O)OC[C@H]1O[C@@H]2[C@@H](Oc3nc(=N)ccn32)[C@@H]1OC(=O)CCCCCCCCCCC/C=C\CCCCCCCC.Cl	> 267	> 202				inactive	< 4.52	inactive	inactive	4		< 4.52	inactive					Active	> 257	ILS at 1000 mg/kg (L1210 [14]): > 257%; Activity (L1210 [15]): Active; Activity (Mus musculus [16]): Non-toxic
CCCCCCCC/C=C\CCCCCCCC(=O)OC[C@H]1O[C@@H]2[C@@H](Oc3nc(=N)ccn32)[C@@H]1OC(=O)CCCCCCC/C=C\CCCCCCCC.Cl	> 257	> 141	Toxic	31	Toxic	inactive	5.49	inactive	inactive	0.3	23	5.07	inactive				Active			
CCCCCC(=O)OC[C@H]1O[C@@H]2[C@@H](Oc3nc(=N)ccn32)[C@@H]1OC(=O)CCCCC.Cl		26	Toxic	100	Toxic	inactive	6.57	inactive	inactive	0.11	86	6.00	inactive	Toxic	inactive	61				
C=CCCCCCCCCC(=O)OC[C@H]1O[C@@H]2[C@@H](Oc3nc(=N)ccn32)[C@@H]1OC(=O)CCCCCCCCC=C.Cl		24				inactive	6.36	inactive	inactive	0.1		6.11	inactive	Toxic	inactive	74				Activity (Mus musculus [9]): Non-toxic
CCCC(=O)OC[C@H]1O[C@@H]2[C@@H](Oc3nc(=N)ccn32)[C@@H]1OC(=O)CCC.Cl	58		Toxic	100		inactive	5.81	inactive	inactive	0.11		5.31	inactive				inactive	inactive	85	
CCCCCCCC/C=C/CCCCCCCC(=O)OC[C@H]1O[C@@H]2[C@@H](Oc3nc(=N)ccn32)[C@@H]1OC(=O)CCCCCCC/C=C/CCCCCCCC.Cl	> 258	114				inactive	5.33	inactive	inactive	1.4		5.03	inactive		inactive			Active	> 257	ILS at 1000 mg/kg (L1210 [14]): 11%; Activity (L1210 [15]): inactive
